Source: patent US20250179052A1, “PYRIMIDINYL-OXY-QUINOLINE BASED HERBICIDAL COMPOUNDS” (SYNGENTA CROP PROTECTION AG, priority 2022, published 2025)

Legend:
Settings in all cases: 250 g/ha, evaluated after 13 days, five-point scale
Setaria faberi (SETFA) [1] = test: Pre-emergence herbicidal glasshouse test; assay type: in vivo
[2] = test system: Ipomoea hederacea (IPOHE); test: Pre-emergence herbicidal glasshouse test; assay type: in vivo
[3] = test system: Amaranthus retoflexus (AMARE); test: Post-emergence herbicidal glasshouse test; assay type: in vivo
AMAPA [4] = test: Pre-emergence herbicidal glasshouse test; assay type: in vivo, Amaranthus tuberculatus
[5] = test system: Amaranthus retoflexus (AMARE); test: Pre-emergence herbicidal glasshouse test; assay type: in vivo
[6] = test system: Echinochloa crus-galli (ECHCG); test: Pre-emergence herbicidal glasshouse test; assay type: in vivo
Setaria faberi (SETFA) [7] = test: Post-emergence herbicidal glasshouse test; assay type: in vivo
[8] = test system: Echinochloa crus-galli (ECHCG); test: Post-emergence herbicidal glasshouse test; assay type: in vivo
AMAPA [9] = test: Post-emergence herbicidal glasshouse test; assay type: in vivo, Amaranthus tuberculatus
[10] = test system: Ipomoea hederacea (IPOHE); test: Post-emergence herbicidal glasshouse test; assay type: in vivo

SMILES	percentage damage caused to the plant, SETFA (Setaria faberi (SETFA) [1])	percentage damage caused to the plant, IPOHE [2]	percentage damage caused to the plant, AMARE [3]	percentage damage caused to the plant, AMAPA (AMAPA [4])	percentage damage caused to the plant, AMARE [5]	percentage damage caused to the plant, ECHCG [6]	percentage damage caused to the plant, SETFA (Setaria faberi (SETFA) [7])	percentage damage caused to the plant, ECHCG [8]	percentage damage caused to the plant, AMAPA (AMAPA [9])	percentage damage caused to the plant, IPOHE [10]
Cc1nc(C(F)(F)F)nc2cccc(Oc3ncc(Cl)cn3)c12 [Compound 1.001, 5-(5-chloropyrimidin-2-yl)oxy-4-methyl-2-(trifluoromethyl)quinazoline]	3 (3=41-60%)	5 (5=81-100%)	5 (5=81-100%)	5 (5=81-100%)	5 (5=81-100%)	3 (3=41-60%)	4 (4=61-80%)	3 (3=41-60%)	5 (5=81-100%)	2 (2=21-40%)
FC(F)(F)c1ncc2c(Oc3ncc(Cl)cn3)cccc2n1 [Compound 1.002, 5-(5-chloropyrimidin-2-yl)oxy-2-(trifluoromethyl)quinazoline]	5 (5=81-100%)	5 (5=81-100%)	5 (5=81-100%)	5 (5=81-100%)	5 (5=81-100%)	5 (5=81-100%)	4 (4=61-80%)	5 (5=81-100%)	5 (5=81-100%)	4 (4=61-80%)
N#Cc1cnc(Oc2cccc3nc(C(F)(F)F)ncc23)nc1 [Compound 1.003]	1 (1=0-20%)	1 (1=0-20%)	1 (1=0-20%)	1 (1=0-20%)	1 (1=0-20%)	1 (1=0-20%)	1 (1=0-20%)	1 (1=0-20%)	1 (1=0-20%)	1 (1=0-20%)
Cc1cnc(Oc2cccc3nc(C(F)(F)F)ncc23)nc1 [Compound 1.004]	4 (4=61-80%)	4 (4=61-80%)	3 (3=41-60%)	4 (4=61-80%)	5 (5=81-100%)	5 (5=81-100%)	4 (4=61-80%)	3 (3=41-60%)	4 (4=61-80%)	4 (4=61-80%)
FC(F)(F)c1ncc2c(Oc3ncc(Br)cn3)cccc2n1 [Compound 1.005]	4 (4=61-80%)	3 (3=41-60%)	4 (4=61-80%)	5 (5=81-100%)	5 (5=81-100%)	3 (3=41-60%)	4 (4=61-80%)	4 (4=61-80%)	5 (5=81-100%)	4 (4=61-80%)
N#Cc1cc(Cl)cnc1Oc1cccc2nc(C(F)(F)F)ncc12 [Compound 1.007]	5 (5=81-100%)	2 (2=21-40%)	2 (2=21-40%)	4 (4=61-80%)	4 (4=61-80%)	4 (4=61-80%)	4 (4=61-80%)	3 (3=41-60%)		2 (2=21-40%)
